Experimental data as given in patent US9523081B2, “Method for enhancing therapeutic effect of stem cells on autoimmune diseases, cardiovascular diseases, and/or hematological diseases” (GWO XI STEM CELL APPLIED TECHNOLOGY CO., LTD., priority 2014, dated 2016).

How the values were obtained:
Format in all cases: cell-based
[1] = tested on: BDNF; assay: RT-PCR gene expression of BDNF in ligustilide-treated ADSCs; settings: for BDNF expression level (Image J): ADSCs, 24 hours
Procedure: (§1) ADSCs were cultured in the K-SFM as prepared in Example 1 at 37° C. in 5% CO2. The ADSCs were divided into […], and each group was treated with different concentrations (0, 0.625, 1.25, 2.5, 5 and 10 μg/ml) of (Z)-ligustilide for 24 hours, respectively.
(§2) The culture medium were removed from each group of stem cells in Experiment (1), then 1 ml of TRIzol reagent (Invitrogen) was added into each well and incubated at room temperature for 5 minutes. The stem cells were scraped by using a spatula and placed into a 1.5 ml microtube. Then, the cells were lysed completely, and 0.2 ml of trichloromethane (CHCl3) was added into the microtube. The microtube was shaken up and down for 15 seconds and incubated at room temperature for 2 to 3 minutes. The mixture was centrifuged (at 12000 g for 15 minutes at 4° C.). The supernatant was transferred into another 1.5 ml microtube, and 0.5 ml of isopropanol was added therein and mixed completely. The mixture was incubated at room temperature for 10 minutes and then centrifuged (at 12000 g for 10 minutes at 4° C.). The supernatant was removed. The remained sediment was washed with 1 ml of 75% ethanol-containing DEPC water (i.e. diethylpyrocarbonate-treated H2O) and centrifuged (7500 g at 4° C. for 5 minutes) again. The supernatant was removed. The remained sediment was dried by vacuum-pumping. The dried sediment was dissolved in about 0.01 ml to 0.02 ml of DEPC water to obtain total RNA of ADSCs of experimental group and blank group, respectively. The absorbance at a wavelength of 260 nm (OD260) of the samples were determined by a spectrophotometer (DU-800, Beckman) to evaluate the concentration of RNA. Then, the RNA was stored at −80° C. and used in the following Experiment (3).
(§3) The effects of ligustilide on increasing the expression of differentiation-promoting genes (e.g., BDNF and NURR1), increasing the expression of homing-promoting genes (e.g., CXCR4 and SDF1αβ), and decreasing the expression of inflammatory genes (e.g., IL-6 and IL-8) was analyzed by reverse transcription polymerase chain reaction (RT-PCR), wherein the gene expression of glyceraldehyde 3-phosphate dehydrogenase (GAPDH) was served as a control group, and the steps were described as follows.
(§4) The total RNA provided in the above Experiment (2) was reverse transcribed into cDNA. 2.5 μl of each primer (10 pM) shown in Table 1A, 7.5 μl of ddH2O, and 12.5 μl of EconoTaq® PLUS GREEN 2X Master Mix (Lucigen, Middleton, Wis., USA) were mixed with 2.5 μl of the cDNA. The mixture was placed in a RT-PCR machine. The reaction conditions were set as follows: i) 94° C. for 30 seconds, 55° C. for 30 seconds, and […], with 30 cycles of the aforesaid steps; ii) 72° C. for 10 minutes; and iii) cooling to 4° C. to stop the reaction
(§5) The obtained RT-PCR product was analyzed by 1.5% agarose gel electrophoresis for 30 minutes (voltage: 100 volts (V)). Then, the gel was placed in and stained with ethidium bromide (EtBr) for 10 minutes, and photographed by a gel image documentation system (DOC PRINT DP-001FDC, VilberLourmat France).

[2] = tested on: IL-6; assay: RT-PCR gene expression of IL-6 in ligustilide-treated ADSCs; settings: for IL-6 expression level (Image J): ADSCs, 24 hours
Procedure: as §1, §2, §3, §4, §5

[3] = tested on: IL-8; assay: RT-PCR gene expression of IL-8 in ligustilide-treated ADSCs; settings: for IL-8 expression level (Image J): ADSCs, 24 hours
Procedure: as §1, §2, §3, §4, §5

[4] = tested on: CXCR4; assay: RT-PCR gene expression of CXCR4 in ligustilide-treated ADSCs; settings: for CXCR4 expression level (Image J): ADSCs, 24 hours
Procedure: as §1, §2, §3, §4, §5

[5] = tested on: NURR1; assay: RT-PCR gene expression of NURR1 in ligustilide-treated ADSCs; settings: for NURR1 expression level (Image J): ADSCs, 24 hours
Procedure: as §1, §2, §3, §4, §5

[6] = tested on: SDF1αβ; assay: RT-PCR gene expression of SDF1αβ in ligustilide-treated ADSCs; settings: for SDF1αβ expression level (Image J): ADSCs, 24 hours
Procedure: as §1, §2, §3, §4, §5

[7] = ADSCs treated with ligustilide, compared to GAPDH control, in words

For `CCC/C=C1\OC(=O)C2=C1CCC=C2` [ligustilide, (Z)-ligustilide], the “gene expression level of BDNF” value [1, 7] was “increased”, the “BDNF expression level (Image J)” value ([1]; 0.625 μg/ml ligustilide) was 5411.77 and the “BDNF expression level (Image J)” value ([1]; 1.25 μg/ml ligustilide) was 4915.77. For the same molecule, the “BDNF expression level (Image J)” value ([1]; 2.5 μg/ml ligustilide) was 7069.72, the “BDNF expression level (Image J)” value ([1]; 5 μg/ml ligustilide) was 5083.65 and the “gene expression level of IL-6” value [2, 7] was “decreased”. For the same molecule, the “IL-6 expression level (Image J)” value ([2]; 0.625 μg/ml ligustilide) was 7756.00, the “IL-6 expression level (Image J)” value ([2]; 1.25 μg/ml ligustilide) was 8204.13 and the “IL-6 expression level (Image J)” value ([2]; 2.5 μg/ml ligustilide) was 5629.93. For the same molecule, the “IL-6 expression level (Image J)” value ([2]; 5 μg/ml ligustilide) was 2804.03, the “gene expression level of IL-8” value [3, 7] was “decreased” and the “IL-8 expression level (Image J)” value ([3]; 0.625 μg/ml ligustilide) was 6102.10. The “IL-8 expression level (Image J)” value ([3]; 1.25 μg/ml ligustilide) was 9691.71, the “IL-8 expression level (Image J)” value ([3]; 2.5 μg/ml ligustilide) was 5840.23 and the “IL-8 expression level (Image J)” value ([3]; 5 μg/ml ligustilide) was 3487.33. For the same molecule, the “gene expression level of CXCR4” value [4, 7] was “increased”, the “CXCR4 expression level (Image J)” value ([4]; 0.625 μg/ml ligustilide) was 2744.11 and the “CXCR4 expression level (Image J)” value ([4]; 1.25 μg/ml ligustilide) was 3719.23. For the same molecule, the “CXCR4 expression level (Image J)” value ([4]; 2.5 μg/ml ligustilide) was 6539.03, the “CXCR4 expression level (Image J)” value ([4]; 5 μg/ml ligustilide) was 4138.77 and the “gene expression level of NURR1” value [5, 7] was “increased”. For the same molecule, the “NURR1 expression level (Image J)” value ([5]; 0.625 μg/ml ligustilide) was 0.00, the “NURR1 expression level (Image J)” value ([5]; 1.25 μg/ml ligustilide) was 0.00 and the “NURR1 expression level (Image J)” value ([5]; 2.5 μg/ml ligustilide) was 6694.43. The “NURR1 expression level (Image J)” value ([5]; 5 μg/ml ligustilide) was 3360.55, the “gene expression level of SDF1αβ” value [6, 7] was “increased” and the “SDF1αβ expression level (Image J)” value ([6]; 0.625 μg/ml ligustilide) was 6766.31. For the same molecule, the “SDF1αβ expression level (Image J)” value ([6]; 1.25 μg/ml ligustilide) was 4065.23, the “SDF1αβ expression level (Image J)” value ([6]; 2.5 μg/ml ligustilide) was 4791.36 and the “SDF1αβ expression level (Image J)” value ([6]; 5 μg/ml ligustilide) was 5767.31.
